According to the NIST ThermoML archive (doi:10.1021/je700260f):
Numbers after ± are expanded uncertainties.

Details: 333.15 K, Liquid, Vibrating tube method

Work on `FC(C(F)(F)F)C(F)(F)F` [1,1,1,2,3,3,3-heptafluoropropane] yielded a mass density (26099 kPa) of 1421.9 ± 1.6 kg/m3, a mass density (26128 kPa) of 1422 ± 1.6 kg/m3 and a mass density (26167 kPa) of 1422.2 ± 1.6 kg/m3. For the same compound, the mass density (26201 kPa) was 1422.2 ± 1.6 kg/m3, the mass density (26234 kPa) was 1422.6 ± 1.6 kg/m3 and the mass density (26257 kPa) was 1422.6 ± 1.6 kg/m3. It also gave a mass density (26527 kPa) of 1423.9 ± 1.6 kg/m3, a mass density (26563 kPa) of 1423.8 ± 1.6 kg/m3 and a mass density (26596 kPa) of 1424.2 ± 1.6 kg/m3. The mass density (26625 kPa) was 1424.4 ± 1.6 kg/m3, the mass density (26654 kPa) was 1424.4 ± 1.6 kg/m3 and the mass density (26692 kPa) was 1424.5 ± 1.6 kg/m3. The mass density (26726 kPa) was 1424.8 ± 1.6 kg/m3, the mass density (26760 kPa) was 1424.8 ± 1.6 kg/m3 and the mass density (26801 kPa) was 1425 ± 1.6 kg/m3. It also gave a mass density (26831 kPa) of 1425.1 ± 1.6 kg/m3, a mass density (26860 kPa) of 1425.4 ± 1.6 kg/m3 and a mass density (26889 kPa) of 1425.4 ± 1.6 kg/m3. It also gave a mass density (26914 kPa) of 1425.6 ± 1.6 kg/m3, a mass density (26943 kPa) of 1425.8 ± 1.6 kg/m3 and a mass density (26972 kPa) of 1425.8 ± 1.6 kg/m3. For the same compound, the mass density (26999 kPa) was 1425.9 ± 1.6 kg/m3, the mass density (27023 kPa) was 1426 ± 1.6 kg/m3 and the mass density (27056 kPa) was 1426.1 ± 1.6 kg/m3. It also gave a mass density (27081 kPa) of 1426.2 ± 1.6 kg/m3, a mass density (27119 kPa) of 1426.4 ± 1.6 kg/m3 and a mass density (27151 kPa) of 1426.6 ± 1.6 kg/m3. It also gave a mass density (27180 kPa) of 1426.6 ± 1.6 kg/m3, a mass density (27621 kPa) of 1428.6 ± 1.6 kg/m3 and a mass density (27651 kPa) of 1428.9 ± 1.6 kg/m3. For the same compound, the mass density (27681 kPa) was 1428.9 ± 1.6 kg/m3, the mass density (27707 kPa) was 1428.9 ± 1.6 kg/m3 and the mass density (27750 kPa) was 1429.2 ± 1.6 kg/m3. The mass density (27783 kPa) was 1429.3 ± 1.6 kg/m3, the mass density (27818 kPa) was 1429.5 ± 1.6 kg/m3 and the mass density (27852 kPa) was 1429.7 ± 1.6 kg/m3. It also gave a mass density (27890 kPa) of 1429.9 ± 1.6 kg/m3, a mass density (27916 kPa) of 1430 ± 1.6 kg/m3 and a mass density (27950 kPa) of 1430.1 ± 1.6 kg/m3. For the same compound, the mass density (27975 kPa) was 1430.2 ± 1.6 kg/m3, the mass density (28484 kPa) was 1432.4 ± 1.6 kg/m3 and the mass density (28514 kPa) was 1432.5 ± 1.6 kg/m3. It also gave a mass density (28543 kPa) of 1432.6 ± 1.6 kg/m3, a mass density (28577 kPa) of 1432.8 ± 1.6 kg/m3 and a mass density (28602 kPa) of 1432.9 ± 1.6 kg/m3. For the same compound, the mass density (28633 kPa) was 1433 ± 1.6 kg/m3, the mass density (28668 kPa) was 1433.1 ± 1.6 kg/m3 and the mass density (28698 kPa) was 1433.3 ± 1.6 kg/m3. For the same compound, the mass density (28730 kPa) was 1433.3 ± 1.6 kg/m3, the mass density (28761 kPa) was 1433.5 ± 1.6 kg/m3 and the mass density (28792 kPa) was 1433.6 ± 1.6 kg/m3. It also gave a mass density (28833 kPa) of 1433.9 ± 1.6 kg/m3, a mass density (28866 kPa) of 1434 ± 1.6 kg/m3 and a mass density (28892 kPa) of 1434.1 ± 1.6 kg/m3. It also gave a mass density (28917 kPa) of 1434.2 ± 1.6 kg/m3, a mass density (28956 kPa) of 1434.4 ± 1.6 kg/m3 and a mass density (28982 kPa) of 1434.4 ± 1.6 kg/m3. For the same compound, the mass density (29008 kPa) was 1434.6 ± 1.6 kg/m3, the mass density (29042 kPa) was 1434.7 ± 1.6 kg/m3 and the mass density (29069 kPa) was 1434.8 ± 1.6 kg/m3. It also gave a mass density (29104 kPa) of 1434.9 ± 1.6 kg/m3, a mass density (29132 kPa) of 1435.2 ± 1.6 kg/m3 and a mass density (29171 kPa) of 1435.3 ± 1.7 kg/m3. It also gave a mass density (29206 kPa) of 1435.5 ± 1.7 kg/m3, a mass density (29233 kPa) of 1435.5 ± 1.7 kg/m3 and a mass density (29267 kPa) of 1435.7 ± 1.7 kg/m3. For the same compound, the mass density (29293 kPa) was 1435.7 ± 1.7 kg/m3, the mass density (29326 kPa) was 1435.9 ± 1.7 kg/m3 and the mass density (29364 kPa) was 1436.1 ± 1.7 kg/m3. It also gave a mass density (29400 kPa) of 1436.2 ± 1.7 kg/m3, a mass density (29434 kPa) of 1436.4 ± 1.7 kg/m3 and a mass density (29694 kPa) of 1437.4 ± 1.7 kg/m3. The mass density (29758 kPa) was 1437.7 ± 1.7 kg/m3, the mass density (30086 kPa) was 1439 ± 1.7 kg/m3 and the mass density (30149 kPa) was 1439.4 ± 1.7 kg/m3. For the same compound, the mass density (30189 kPa) was 1439.6 ± 1.7 kg/m3, the mass density (30299 kPa) was 1440 ± 1.7 kg/m3 and the mass density (30336 kPa) was 1440.1 ± 1.7 kg/m3. The mass density (30372 kPa) was 1440.3 ± 1.7 kg/m3, the mass density (30402 kPa) was 1440.3 ± 1.7 kg/m3 and the mass density (30439 kPa) was 1440.7 ± 1.7 kg/m3. The mass density (30461 kPa) was 1440.7 ± 1.7 kg/m3, the mass density (30493 kPa) was 1440.8 ± 1.7 kg/m3 and the mass density (30521 kPa) was 1440.9 ± 1.7 kg/m3. For the same compound, the mass density (30557 kPa) was 1441.1 ± 1.7 kg/m3, the mass density (30586 kPa) was 1441.1 ± 1.7 kg/m3 and the mass density (30623 kPa) was 1441.3 ± 1.7 kg/m3. For the same compound, the mass density (30650 kPa) was 1441.3 ± 1.7 kg/m3, the mass density (30690 kPa) was 1441.5 ± 1.7 kg/m3 and the mass density (30717 kPa) was 1441.7 ± 1.7 kg/m3. It also gave a mass density (30753 kPa) of 1441.8 ± 1.7 kg/m3, a mass density (30780 kPa) of 1441.9 ± 1.7 kg/m3 and a mass density (30816 kPa) of 1442.1 ± 1.7 kg/m3. It also gave a mass density (30843 kPa) of 1442 ± 1.7 kg/m3, a mass density (30884 kPa) of 1442.3 ± 1.7 kg/m3 and a mass density (30925 kPa) of 1442.4 ± 1.7 kg/m3. The mass density (32911 kPa) was 1450.4 ± 1.7 kg/m3, the mass density (32943 kPa) was 1450.4 ± 1.7 kg/m3 and the mass density (32981 kPa) was 1450.6 ± 1.7 kg/m3. It also gave a mass density (33028 kPa) of 1450.9 ± 1.7 kg/m3, a mass density (33066 kPa) of 1451 ± 1.7 kg/m3 and a mass density (33093 kPa) of 1451.1 ± 1.7 kg/m3. The mass density (33132 kPa) was 1451.1 ± 1.7 kg/m3.
